Laboratory results as given in PubChem BioAssay (NCI).
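GI50: concentration for 50% inhibition of growth. The concentration for full growth arrest is given as TGI.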

Key:
Experiment in all cases: NCI-60 cell line screen, 384-well format
[1] = system: T-47D breast
[2] = system: LOX IMVI melanoma
[3] = system: IGROV1 ovarian
[4] = system: RPMI-8226 leukemia
[5] = system: HCT-15 colon
[6] = system: SNB-75 CNS
[7] = system: HT29 colon
[8] = system: UO-31 renal
[9] = system: HS 578T breast
[10] = system: ACHN renal
[11] = system: UACC-62 melanoma
[12] = system: SK-MEL-28 melanoma
[13] = system: KM12 colon
[14] = system: HOP-92 NSCLC
[15] = system: DU-145 prostate
[16] = system: NCI/ADR-RES ovarian
[17] = system: A498 renal
[18] = system: NCI-H23 lung
[19] = system: HCT-116 colon
[20] = system: HCC-2998 colon
[21] = system: NCI-H522 lung
[22] = system: SF-268 CNS
[23] = system: SN12C renal
[24] = system: SF-539 CNS
[25] = system: EKVX NSCLC
[26] = system: RXF 393 renal
[27] = system: PC-3 prostate
[28] = system: K-562 leukemia
[29] = system: MDA-MB-435 melanoma
[30] = system: COLO 205 colon
[31] = system: HL-60(TB) leukemia
[32] = system: UACC-257 melanoma
[33] = system: U251 glioblastoma
[34] = system: OVCAR-8 ovarian
[35] = system: NCI-H322M lung
[36] = system: OVCAR-3 ovarian
[37] = system: HOP-62 NSCLC
[38] = system: MCF7 breast
[39] = system: TK-10 renal
[40] = system: M14 melanoma
[41] = system: MDA-MB-468 breast
[42] = system: NCI-H226 lung
[43] = system: 786-0 renal
[44] = system: SK-OV-3 ovarian
[45] = system: SR leukemia
[46] = system: MOLT-4 leukemia
[47] = system: SNB-19 CNS
[48] = system: SK-MEL-5 melanoma
[49] = system: MDA-MB-231 breast
[50] = system: OVCAR-4 ovarian
[51] = system: NCI-H460 NSCLC
[52] = system: MALME-3M melanoma
[53] = system: A549 NSCLC
[54] = system: CAKI-1 renal
[55] = system: SW-620 colon
[56] = system: SF-295 CNS
[57] = system: BT-549 breast
[58] = system: CCRF-CEM leukemia

For `COCC(=O)NC/C=C/c1ccc2ncnc(Nc3ccc(Oc4ccc(C)nc4)c(C)c3)c2c1`, the GI50 [1] was 4.62 µM, the TGI [1] was 17.6 µM and the GI50 [2] was 12 µM. The TGI [2] was 24.6 µM, the GI50 [3] was 11.7 µM and the TGI [3] was 24.5 µM. For the same compound, the GI50 [4] was 4.48 µM, the TGI [4] was 15.3 µM and the GI50 [5] was 13 µM. For the same compound, the TGI [5] was 26.4 µM, the GI50 [6] was 15.9 µM and the TGI [6] was 29.6 µM. It also gave a GI50 [7] of 15.1 µM, a TGI [7] of 28.5 µM and a GI50 [8] of 12.6 µM. For the same compound, the TGI [8] was 25.6 µM, the GI50 [9] was 11.9 µM and the TGI [9] was 24.2 µM. The GI50 [10] was 12.1 µM, the TGI [10] was 29.1 µM and the GI50 [11] was 14.9 µM. For the same compound, the TGI [11] was 28.2 µM, the GI50 [12] was 17.1 µM and the TGI [12] was 31.1 µM. The GI50 [13] was 15.8 µM, the TGI [13] was 29.8 µM and the GI50 [14] was 13.4 µM. The TGI [14] was 26.4 µM, the GI50 [15] was 12.9 µM and the TGI [15] was 29.3 µM. For the same compound, the GI50 [16] was 15 µM, the TGI [16] was 29.6 µM and the GI50 [17] was 14.3 µM. The TGI [17] was 27.6 µM, the GI50 [18] was 15.1 µM and the TGI [18] was 28.8 µM. The GI50 [19] was 14.2 µM, the TGI [19] was 27.5 µM and the GI50 [20] was 17.5 µM. For the same compound, the TGI [20] was 31.4 µM, the GI50 [21] was 1.29 µM and the TGI [21] was 17.3 µM. For the same compound, the GI50 [22] was 16.7 µM, the TGI [22] was 31 µM and the GI50 [23] was 11.6 µM. It also gave a TGI [23] of 26.5 µM, a GI50 [24] of 2.66 µM and a TGI [24] of 6.57 µM. For the same compound, the GI50 [25] was 9.72 µM, the TGI [25] was 22.6 µM and the GI50 [26] was 10.7 µM. For the same compound, the TGI [26] was 22.7 µM, the GI50 [27] was 13.9 µM and the TGI [27] was 28.3 µM. The GI50 [28] was 5.45 µM, the TGI [28] was 18.2 µM and the GI50 [29] was 15.6 µM. It also gave a TGI [29] of 29.1 µM, a GI50 [30] of 12.3 µM and a TGI [30] of 24.8 µM. For the same compound, the GI50 [31] was 3.53 µM, the TGI [31] was 10.3 µM and the GI50 [32] was 14.9 µM. The TGI [32] was 28.3 µM, the GI50 [33] was 15 µM and the TGI [33] was 28.4 µM. It also gave a GI50 [34] of 3.59 µM, a TGI [34] of 13.1 µM and a GI50 [35] of 10.7 µM. The TGI [35] was 25.8 µM, the GI50 [36] was 14.3 µM and the TGI [36] was 27.8 µM. The GI50 [37] was 15.4 µM, the TGI [37] was 29.6 µM and the GI50 [38] was 4.11 µM. The TGI [38] was 14.7 µM, the GI50 [39] was 12 µM and the TGI [39] was 24.7 µM. For the same compound, the GI50 [40] was 17.1 µM, the TGI [40] was 30.9 µM and the GI50 [41] was 2.19 µM. It also gave a TGI [41] of 6.66 µM, a GI50 [42] of 16.4 µM and a TGI [42] of 31.9 µM. It also gave a GI50 [43] of 16 µM, a TGI [43] of 29.6 µM and a GI50 [44] of 11.3 µM. The TGI [44] was 23.5 µM, the GI50 [45] was 4.1 µM and the TGI [45] was 8.2 µM. It also gave a GI50 [46] of 6.77 µM, a TGI [46] of 18.8 µM and a GI50 [47] of 15.2 µM. It also gave a TGI [47] of 28.9 µM, a GI50 [48] of 3.38 µM and a TGI [48] of 13.6 µM. The GI50 [49] was 10.7 µM, the TGI [49] was 23.3 µM and the GI50 [50] was 13.3 µM. It also gave a TGI [50] of 26.3 µM, a GI50 [51] of 4.25 µM and a TGI [51] of 13.2 µM. The GI50 [52] was 14.3 µM, the TGI [52] was 27.4 µM and the GI50 [53] was 11.5 µM. The TGI [53] was 23.9 µM, the GI50 [54] was 10.9 µM and the TGI [54] was 23.6 µM. The GI50 [55] was 11.1 µM, the TGI [55] was 23.2 µM and the GI50 [56] was 14 µM. It also gave a TGI [56] of 27.3 µM, a GI50 [57] of 13.7 µM and a TGI [57] of 26.8 µM. The GI50 [58] was 2.86 µM and the TGI [58] was 7.8 µM.
